Measurements as given in BigSolDB 2.1.

Nc1ccc(Br)nn1
solubility (mole fraction)
Settings	in DMF	in acetone	in ethanol	in isopropanol	in methanol	in n-butanol	in n-propanol	in propylene glycol	in toluene	in water
278.15 K	0.0126	0.00754	0.00216	0.00276	0.00108	0.00362	0.00316	0.00191	0.00989	2.57e-05
283.15 K	0.0134	0.00832	0.00233	0.0031	0.00115	0.00405	0.00356	0.00205	0.0108	2.74e-05
288.15 K	0.0144	0.0092	0.00251	0.00346	0.00123	0.00451	0.00401	0.0022	0.0118	2.94e-05
293.15 K	0.0155	0.0102	0.0027	0.00384	0.00131	0.005	0.00446	0.0024	0.0129	3.18e-05
298.15 K	0.0167	0.0113	0.0029	0.0043	0.00142	0.00556	0.00496	0.0026	0.0141	3.43e-05
303.15 K	0.0179	0.0125	0.00314	0.00475	0.00152	0.0062	0.00557	0.00281	0.0154	3.7e-05
308.15 K	0.0192	0.0138	0.0034	0.0053	0.00165	0.00687	0.00617	0.00305	0.0167	3.97e-05
313.15 K	0.0206	0.0153	0.00366	0.00586	0.00178	0.00759	0.00683	0.0033	0.018	4.27e-05
318.15 K	0.0223	0.0169	0.00399	0.00649	0.00192	0.00838	0.00758	0.00357	0.0196	4.6e-05
323.15 K	0.0242	0.0188	0.0044	0.00721	0.00209	0.00933	0.0085	0.00391	0.0213	4.98e-05
